{
  "source": "patent US6380198B1",
  "about": "(Laboratoire Medidom S.A., priority 1997, dated 2002)",
  "key": {"[1]": {"system": "intraocular pressure of rabbits with ocular hypertension", "experiment": "Intraocular pressure in rabbits with ocular hypertension induced by α-chymotrypsin", "assay_type": "in vivo, rabbit (Vienna Blue, pigmented)"}, "intraocular pressure [2]": {"system": "intraocular pressure", "conditions": "cited from earlier work"}, "[3]": {"system": "cornea (corneal thickness)"}, "[4]": {"system": "intraocular pressure of rabbits showing normal baseline intraocular pressure", "experiment": "Intraocular pressure in rabbits with normal intraocular pressure after topical instillation", "assay_type": "in vivo, rabbit (Vienna Blue, pigmented)"}, "intraocular pressure [5]": {"system": "intraocular pressure", "conditions": "general statement on the literature; cited from earlier work"}, "[6]": {"conditions": "50 μl eye-drops, 0.050% flunarizine, equimolar comparators, 0.5% timolol"}},
  "note": "Where “and” joins values, the source holds several entries; their conditions need not be identical. Equal values may be shown once. Read-outs that look alike come from different tables or passages of the source.",
  "data": [
    {"smiles": "COc1ccc(CCN(C)CCCC(C#N)(c2ccc(OC)c(OC)c2)C(C)C)cc1OC", "note": "(centres unmarked) [verapamil]", "values": [
      {"measurement": "Effect on intraocular pressure in rabbits with ocular hypertension, in words", "setting": "[1]; [6]", "value": "do not show any significant reduction"},
      {"measurement": "Intraocular pressure (mmHg) at the time (min): 30, average ± S.D.", "setting": "[1]; Table 3, hypertensive rabbits, average ± S.D. of 4 rabbits, 30 min after instillation, 50 μl eye-drops: 0.050% flunarizine, 0.056% verapamil, 0.051% diltiazem, 0.043% nifedipine", "value": "48.7 ± 6.5", "unit": "mmHg"},
      {"measurement": "Intraocular pressure (mmHg) at the time (min): 60, average ± S.D.", "setting": "[1]; Table 3, hypertensive rabbits, average ± S.D. of 4 rabbits, 60 min after instillation, 50 μl eye-drops: 0.050% flunarizine, 0.056% verapamil, 0.051% diltiazem, 0.043% nifedipine", "value": "50.0 ± 5.47", "unit": "mmHg"},
      {"measurement": "Intraocular pressure (mmHg) at the time (min): 90, average ± S.D.", "setting": "[1]; Table 3, hypertensive rabbits, average ± S.D. of 4 rabbits, 90 min after instillation, 50 μl eye-drops: 0.050% flunarizine, 0.056% verapamil, 0.051% diltiazem, 0.043% nifedipine", "value": "48.0 ± 5.94", "unit": "mmHg"},
      {"measurement": "Intraocular pressure (mmHg) at the time (min): 120, average ± S.D.", "setting": "[1]; Table 3, hypertensive rabbits, average ± S.D. of 4 rabbits, 120 min after instillation, 50 μl eye-drops: 0.050% flunarizine, 0.056% verapamil, 0.051% diltiazem, 0.043% nifedipine", "value": "48.5 ± 5.97", "unit": "mmHg"},
      {"measurement": "Intraocular pressure (mmHg) at the time (min): 180, average ± S.D.", "setting": "[1]; Table 3, hypertensive rabbits, average ± S.D. of 4 rabbits, 180 min after instillation, 50 μl eye-drops: 0.050% flunarizine, 0.056% verapamil, 0.051% diltiazem, 0.043% nifedipine", "value": "48.75 ± 6.39", "unit": "mmHg"},
      {"measurement": "Intraocular pressure (mmHg) at the time (min): 240, average ± S.D.", "setting": "[1]; Table 3, hypertensive rabbits, average ± S.D. of 4 rabbits, 240 min after instillation, 50 μl eye-drops: 0.050% flunarizine, 0.056% verapamil, 0.051% diltiazem, 0.043% nifedipine", "value": "49.5 ± 5.44", "unit": "mmHg"},
      {"measurement": "Intraocular pressure (mmHg) at the time (min): 0, average ± S.D.", "setting": "[1]; Table 3, hypertensive rabbits, average ± S.D. of 4 rabbits, time 0 = 15 min before instillation (baseline), 50 μl eye-drops: 0.050% flunarizine, 0.056% verapamil, 0.051% diltiazem, 0.043% nifedipine", "value": "49.0 ± 5.94", "unit": "mmHg"},
      {"measurement": "Intraocular pressure (mmHg) at the time (min): 30", "setting": "[1]; Table 3, hypertensive rabbits, individual rabbit, right eye, 30 min after instillation, 50 μl eye-drops: 0.050% flunarizine, 0.056% verapamil, 0.051% diltiazem, 0.043% nifedipine", "value": "55 mmHg and 48 mmHg and 40 mmHg and 52 mmHg"},
      {"measurement": "Intraocular pressure (mmHg) at the time (min): 60", "setting": "[1]; Table 3, hypertensive rabbits, individual rabbit, right eye, 60 min after instillation, 50 μl eye-drops: 0.050% flunarizine, 0.056% verapamil, 0.051% diltiazem, 0.043% nifedipine", "value": "56 mmHg and 49 mmHg and 43 mmHg and 52 mmHg"},
      {"measurement": "Intraocular pressure (mmHg) at the time (min): 90", "setting": "[1]; Table 3, hypertensive rabbits, individual rabbit, right eye, 90 min after instillation, 50 μl eye-drops: 0.050% flunarizine, 0.056% verapamil, 0.051% diltiazem, 0.043% nifedipine", "value": "55 mmHg and 46 mmHg and 41 mmHg and 50 mmHg"},
      {"measurement": "Intraocular pressure (mmHg) at the time (min): 120", "setting": "[1]; Table 3, hypertensive rabbits, individual rabbit, right eye, 120 min after instillation, 50 μl eye-drops: 0.050% flunarizine, 0.056% verapamil, 0.051% diltiazem, 0.043% nifedipine", "value": "55 mmHg and 47 mmHg and 41 mmHg and 51 mmHg"},
      {"measurement": "Intraocular pressure (mmHg) at the time (min): 180", "setting": "[1]; Table 3, hypertensive rabbits, individual rabbit, right eye, 180 min after instillation, 50 μl eye-drops: 0.050% flunarizine, 0.056% verapamil, 0.051% diltiazem, 0.043% nifedipine", "value": "57 mmHg and 46 mmHg and 42 mmHg and 50 mmHg"},
      {"measurement": "Intraocular pressure (mmHg) at the time (min): 240", "setting": "[1]; Table 3, hypertensive rabbits, individual rabbit, right eye, 240 min after instillation, 50 μl eye-drops: 0.050% flunarizine, 0.056% verapamil, 0.051% diltiazem, 0.043% nifedipine", "value": "56 mmHg and 48 mmHg and 43 mmHg and 51 mmHg"},
      {"measurement": "Intraocular pressure (mmHg) at the time (min): 0", "setting": "[1]; Table 3, hypertensive rabbits, individual rabbit, right eye, time 0 = 15 min before instillation (baseline), 50 μl eye-drops: 0.050% flunarizine, 0.056% verapamil, 0.051% diltiazem, 0.043% nifedipine", "value": "56 mmHg and 47 mmHg and 42 mmHg and 51 mmHg"},
      {"measurement": "Intraocular pressure after oral administration to rabbits", "setting": "intraocular pressure [2]; Beatty et al. 1984", "value": "did not evidence any effect"},
      {"measurement": "Intraocular pressure after topical administration to rabbits", "setting": "intraocular pressure [2]; Beatty et al. 1984", "value": "increase in the intraocular pressure"},
      {"measurement": "Intraocular pressure after systemic administration to rabbits", "setting": "intraocular pressure [2]; Payene et al. 1990", "value": "reduction in the intraocular pressure"},
      {"measurement": "Intraocular pressure after topical administration to rabbits", "setting": "intraocular pressure [2]; Payene et al. 1990", "value": "did not detect any significant effect"},
      {"measurement": "Corneal thickness (mm): 1 hour", "setting": "[3]; individual rabbit, treated right eye (RE), 1 hour after single 50 μl instillation, 0.050% flunarizine, 0.056% verapamil, 0.051% diltiazem, 0.043% nifedipine", "value": "0.376 mm and 0.398 mm and 0.387 mm and 0.401 mm"},
      {"measurement": "Corneal thickness (mm): 2 hours", "setting": "[3]; individual rabbit, treated right eye (RE), 2 hours after single 50 μl instillation, 0.050% flunarizine, 0.056% verapamil, 0.051% diltiazem, 0.043% nifedipine", "value": "0.385 mm and 0.406 mm and 0.400 mm and 0.494 mm"},
      {"measurement": "Corneal thickness (mm): 3 hours", "setting": "[3]; individual rabbit, treated right eye (RE), 3 hours after single 50 μl instillation, 0.050% flunarizine, 0.056% verapamil, 0.051% diltiazem, 0.043% nifedipine", "value": "0.383 mm and 0.402 mm (2×) and 0.410 mm"},
      {"measurement": "Corneal thickness (mm): Baseline", "setting": "[3]; individual rabbit, treated right eye (RE), before single 50 μl instillation, 0.050% flunarizine, 0.056% verapamil, 0.051% diltiazem, 0.043% nifedipine", "value": "0.356 mm and 0.384 mm and 0.372 mm and 0.392 mm"},
      {"measurement": "Increase in corneal thickness", "setting": "[3]; ophthalmic solution containing 0.056% verapamil", "value": "15-20 μm/hour"},
      {"measurement": "Corneal swelling / alteration of corneal thickness, in words", "setting": "[3]; single 50 μl instillation, observed up to 3 hours", "value": "caused comeal swelling"},
      {"measurement": "Effect on intraocular pressure in rabbits with normal pressure, in words", "setting": "[4]; [6]", "value": "neither the verapamil formulation nor the diltiazem formulation, both using the same vehicle as MEG 01, did produce any intraocular pressure decrease"},
      {"measurement": "Intraocular pressure (mmHg) at the time (min): 30, average ± S.D.", "setting": "[4]; Table 1, average ± S.D. of 4 rabbits, 30 min after instillation, 50 μl eye-drops: 0.050% flunarizine, 0.056% verapamil, 0.051% diltiazem, 0.043% nifedipine", "value": "15 ± 1.3", "unit": "mmHg"},
      {"measurement": "Intraocular pressure (mmHg) at the time (min): 60, average ± S.D.", "setting": "[4]; Table 1, average ± S.D. of 4 rabbits, 60 min after instillation, 50 μl eye-drops: 0.050% flunarizine, 0.056% verapamil, 0.051% diltiazem, 0.043% nifedipine", "value": "14.7 ± 0.5", "unit": "mmHg"},
      {"measurement": "Intraocular pressure (mmHg) at the time (min): 90, average ± S.D.", "setting": "[4]; Table 1, average ± S.D. of 4 rabbits, 90 min after instillation, 50 μl eye-drops: 0.050% flunarizine, 0.056% verapamil, 0.051% diltiazem, 0.043% nifedipine", "value": "14 ± 1.0", "unit": "mmHg"},
      {"measurement": "Intraocular pressure (mmHg) at the time (min): 120, average ± S.D.", "setting": "[4]; Table 1, average ± S.D. of 4 rabbits, 120 min after instillation, 50 μl eye-drops: 0.050% flunarizine, 0.056% verapamil, 0.051% diltiazem, 0.043% nifedipine", "value": "15.7 ± 0.5", "unit": "mmHg"},
      {"measurement": "Intraocular pressure (mmHg) at the time (min): 180, average ± S.D.", "setting": "[4]; Table 1, average ± S.D. of 4 rabbits, 180 min after instillation, 50 μl eye-drops: 0.050% flunarizine, 0.056% verapamil, 0.051% diltiazem, 0.043% nifedipine", "value": "16.2 ± 0.5", "unit": "mmHg"},
      {"measurement": "Intraocular pressure (mmHg) at the time (min): 240, average ± S.D.", "setting": "[4]; Table 1, average ± S.D. of 4 rabbits, 240 min after instillation, 50 μl eye-drops: 0.050% flunarizine, 0.056% verapamil, 0.051% diltiazem, 0.043% nifedipine", "value": "16.5 ± 1.0", "unit": "mmHg"},
      {"measurement": "Intraocular pressure (mmHg) at the time (min): 0, average ± S.D.", "setting": "[4]; Table 1, average ± S.D. of 4 rabbits, time 0 = 15 min before instillation (baseline), 50 μl eye-drops: 0.050% flunarizine, 0.056% verapamil, 0.051% diltiazem, 0.043% nifedipine", "value": "16 ± 0.8", "unit": "mmHg"},
      {"measurement": "Intraocular pressure (mmHg) at the time (min): 30", "setting": "[4]; Table 1, individual rabbit, right eye, 30 min after instillation, 50 μl eye-drops: 0.050% flunarizine, 0.056% verapamil, 0.051% diltiazem, 0.043% nifedipine", "value": "16 mmHg and 14 mmHg and 17 mmHg and 15 mmHg"},
      {"measurement": "Intraocular pressure (mmHg) at the time (min): 60", "setting": "[4]; Table 1, individual rabbit, right eye, 60 min after instillation, 50 μl eye-drops: 0.050% flunarizine, 0.056% verapamil, 0.051% diltiazem, 0.043% nifedipine", "value": "15 mmHg (3×) and 14 mmHg"},
      {"measurement": "Intraocular pressure (mmHg) at the time (min): 90", "setting": "[4]; Table 1, individual rabbit, right eye, 90 min after instillation, 50 μl eye-drops: 0.050% flunarizine, 0.056% verapamil, 0.051% diltiazem, 0.043% nifedipine", "value": "15 mmHg (3×) and 13 mmHg"},
      {"measurement": "Intraocular pressure (mmHg) at the time (min): 120", "setting": "[4]; Table 1, individual rabbit, right eye, 120 min after instillation, 50 μl eye-drops: 0.050% flunarizine, 0.056% verapamil, 0.051% diltiazem, 0.043% nifedipine", "value": "16 mmHg (3×) and 13 mmHg"},
      {"measurement": "Intraocular pressure (mmHg) at the time (min): 180", "setting": "[4]; Table 1, individual rabbit, right eye, 180 min after instillation, 50 μl eye-drops: 0.050% flunarizine, 0.056% verapamil, 0.051% diltiazem, 0.043% nifedipine", "value": "16 mmHg (3×) and 17 mmHg"},
      {"measurement": "Intraocular pressure (mmHg) at the time (min): 240", "setting": "[4]; Table 1, individual rabbit, right eye, 240 min after instillation, 50 μl eye-drops: 0.050% flunarizine, 0.056% verapamil, 0.051% diltiazem, 0.043% nifedipine", "value": "17 mmHg (3×) and 15 mmHg"},
      {"measurement": "Intraocular pressure (mmHg) at the time (min): 0", "setting": "[4]; Table 1, individual rabbit, right eye, time 0 = 15 min before instillation (baseline), 50 μl eye-drops: 0.050% flunarizine, 0.056% verapamil, 0.051% diltiazem, 0.043% nifedipine", "value": "17 mmHg and 15 mmHg and 16 mmHg (2×)"},
      {"measurement": "Intraocular pressure after administration to man", "setting": "intraocular pressure [5]", "value": "reduction of the intraocular pressure"}
    ]}
  ]
}
